1 compound from publication PMC1892040 (PLoS Medicine, 2007) can be followed below.

pIC50: −log10 of the molar value. “Also recorded” adds a separate entry of the source. Like-named read-outs stand apart in the source and are kept apart here.

Series [1] deals with lactate dehydrogenase (LDH). The experiment in a line: LDH activity in homogenates of treated worms. It is filed as cell-based, Schistosoma mansoni. Conditions: 10 μM AF.
The test system of another series is GSH peroxidase (GPx). The experiment in a line: GPx activity in homogenates of treated worms. It is filed as cell-based, Schistosoma mansoni. Conditions: 10 μM AF.
In the next series the test system is GSH:GSSG ratio. As to the kind of experiment: GSH:GSSG ratio in treated worms. It is filed as cell-based, Schistosoma mansoni. Conditions: after 6 h of treatment with 10 μM AF. How it is done: AF was dissolved in DMSO and added to freshly perfused worms in DMEM to 10 μM. Control worms were treated with equal amounts of carrier. Worms were subsequently observed for unpairing, motility, and mortality, and were collected at the indicated time intervals for analysis. Worms were homogenized by sonication in PBS and homogenates were assayed for TrxR and GR activities as described above. […] Each assay was done in triplicate and each experiment was done three times.

Series [2] has as its system schistosomula and juvenile liver stage parasites. As to the kind of experiment: Survival of larval and juvenile parasites in culture with AF. To be noted: AF at concentrations as low as 5 μM. It is filed as cell-based, Schistosoma mansoni. The source says: Percutaneous infection of outbred mice (NIH Swiss or Swiss-Webster) with S. mansoni cercariae (NMRI strain) obtained from infected Biomphalaria glabrata snails, perfusion of adult worms (6–7 wk) and juvenile worms (23 d) and preparation of schistosomula from cercariae were as described. This study was approved by the Institutional Animal Care and Use Committee of Illinois State University (08–2002; Department of Health and Human Services animal welfare assurance number A3762–01).
Figure 6 Survival of Schistosomula, Adult Worms, and Myeloma Cells in the Presence of Auranofin or Potassium Antimonyl Tartrate (A) Cultured schistosomula treated with 0 μM AF (dashed line); AF 0.5 μM (♦); 1 μM (*); 2 μM (x); 5 μM (▴); 10 μM. (B) Survival of adult Schistosoma mansoni worms at 24 h (dashed line), myeloma cells at 24 h; and myeloma cells at 5 d (♦) at given concentrations of AF. (C) As in (B) in the presence of given concentrations of PAT. Each treatment was done in triplicate and each experiment was done three times. Error bars show the standard deviation of the three replicate experiments.

The next series relates to myeloma cell line SP2/0. As to the kind of experiment: Cytotoxicity assay (sulforhodamine B). The format is cell-based. Conditions: for 5 d. As to the method:
Cytotoxicity assays were performed using sulforhodamine B to determine cellular protein content as described. Briefly, myeloma cell line SP2/0 was cultured in 96-well microtiter plates containing 0.2 ml of RPMI-1640 per well at a cell density of 1,000 per well at 37 °C in 5% CO2. Cells were treated with drug concentrations (or drug carrier alone) and exposure times as indicated. After treatment, cells were fixed with 10% TCA at 4 °C for 1 h. Fixed cells were rinsed to remove fixative and then stained in 0.4% (w/v) sulforhodamine B (Sigma) in 1% acetic acid for 30 min. After washing with 1% acetic acid and dye extraction in 10 mM Tris (pH 10.5), plates were read at A564nm. The A564nm of drug-treated cells was compared to carrier-only-treated cells. The treatments were done in triplicate and the experiments repeated three times.

Series [3] has as its target T1, S. mansoni TGR (Schistosoma mansoni, UniProt Q962Y6).
T1 sequence (Q962Y6 1-598): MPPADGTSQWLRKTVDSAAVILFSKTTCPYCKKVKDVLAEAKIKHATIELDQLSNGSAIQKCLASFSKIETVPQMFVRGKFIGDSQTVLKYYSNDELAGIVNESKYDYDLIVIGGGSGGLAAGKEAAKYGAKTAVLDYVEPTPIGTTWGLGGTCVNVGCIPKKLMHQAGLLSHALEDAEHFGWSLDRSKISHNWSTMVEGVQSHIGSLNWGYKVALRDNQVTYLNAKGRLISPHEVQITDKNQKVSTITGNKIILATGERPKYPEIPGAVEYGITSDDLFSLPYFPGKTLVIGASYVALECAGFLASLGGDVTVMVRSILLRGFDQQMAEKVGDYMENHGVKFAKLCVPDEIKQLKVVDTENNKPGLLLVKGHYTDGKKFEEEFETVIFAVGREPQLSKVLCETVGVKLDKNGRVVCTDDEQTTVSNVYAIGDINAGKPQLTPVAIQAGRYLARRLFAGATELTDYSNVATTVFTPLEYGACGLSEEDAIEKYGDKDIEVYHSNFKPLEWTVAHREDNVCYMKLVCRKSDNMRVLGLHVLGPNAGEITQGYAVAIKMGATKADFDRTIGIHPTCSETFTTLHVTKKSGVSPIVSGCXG
It is filed as biochemical. More on the design: The entire TGR ORF plus the SECIS element was subcloned into pET-24a; made in house; host or cells: Escherichia coli BL21(DE3) with pSUABC. To be noted: read-out: IC50 S. mansoni TGR, DTNB (TrxR activity); 3 mM DTNB, 15 min preincubation with 100 μM NADPH.
Experimental: (§1) Assays were performed at 25 °C in 0.1 M potassium phosphate (pH 7.4), 10 mM EDTA using 100 μM NADPH unless otherwise stated.
(§2) Initial inhibitor screens were conducted in 200 μl volumes in 96 well plates with 50 μM inhibitor, 100 μM NADPH, and 5 nM TGR in 0.1 M potassium phosphate (pH 7.4), 10 mM EDTA with a preincubation step of 15 min. […] All assays were done in triplicate.

Series [4] deals with T1, S. mansoni TGR. It is filed as biochemical. To be noted: read-out: IC50 S. mansoni TGR, GSSG (GR activity); 100 μM GSSG, 15 min preincubation with 100 μM NADPH. More on the design: The entire TGR ORF plus the SECIS element was subcloned into pET-24a; made in house; host or cells: Escherichia coli BL21(DE3) with pSUABC.
Experimental: as §1, §2

In the case of `CC(=O)OC[C@H]1O[C@@H]([S-])[C@H](OC(C)=O)[C@@H](OC(C)=O)[C@@H]1OC(C)=O.CCP(CC)CC.[Au+]` [AF, auranofin], the “LDH activity in worm homogenates” value in series [1] was “no significant deviation from controls”. Further, the “GPx activity in worm homogenates” value in the series on GSH peroxidase (GPx) is on record as “no significant deviation from controls; also recorded: not inhibited”. Further, the “Decrease of GSH:GSSG ratio” value in the series with GSH:GSSG ratio worked out at 85%. Further, the “Time to kill larval, skin stage and juvenile liver stage parasites” value in series [2] is given as “less than 10 h”. Further, the “Concentration tolerated by mammalian cell line” value in the series with myeloma cell line SP2/0 turned out to be 100 µM. For the same compound, the negative logarithm of the IC50 (pIC50) – broadly, −log10 of the IC50, conventionally taken in molar units – at S. mansoni TGR [3] was 8.15; at S. mansoni TGR [4] it was 8.05.
